Assay results reported in ChEMBL document CHEMBL1154880, “Hydroxylated sclerosporin derivatives from the marine-derived fungus Cadophora malorum” (J Nat Prod, 2010).
Values after ≈ are worked out from the molar mass of the structure shown. Active and inactive are the calls of the source. No cut-off for these calls is given here.

Experiments:
SARS-CoV = assay: Antiviral activity against SARS virus infected in african green monkey Vero76 cells assessed as inhibition of virus-induced cytopathogenic effect at 100 ug/ml after 3 days by neutral red uptake assay; assay type: functional, organism-based; conditions: Severe acute respiratory syndrome-related coronavirus, Vero 76
SF-268 = assay: Cytotoxicity against human SF268 cells at 100 uM after 48 hrs by sulforhodamine B assay; assay type: functional, cell-based
Plasmodium berghei = assay: Antiplasmodial activity against Plasmodium berghei sporozoites expressing GFP infected in hepatocytes at 25 uM by flow cytometry; assay type: functional, organism-based; conditions: Hepatocyte
Priestia megaterium = assay: Antibacterial activity against Bacillus megaterium at 50 ug/disk; assay type: functional, organism-based
Mycotypha microspora = assay: Antifungal activity against Mycotypha microspora at 50 ug/disk; assay type: functional, organism-based
Influenza A virus = assay: Antiviral activity against influenza A H5N1 subtype at 100 ug/ml; assay type: functional, organism-based
[1] = tested on: Human immunodeficiency virus 1; assay: Antiviral activity against HIV1 infected in human MT4 cells assessed as inhibition of virus-induced cytopathogenic effect at 50 ug/ml after 5 days by MTT assay; assay type: functional, organism-based
[2] = biological target: Cyclin-dependent kinase 5 (Homo sapiens) (UniProt Q00535); assay: Inhibition of CDK5 at […]
Aspergillus ruber = assay: Antifungal activity against Eurotium rubrum at 50 ug/disk; assay type: functional, organism-based
[Chlorella] fusca = Antialgal activity against Chlorella fusca at 50 ug/disk; assay type: functional, organism-based; conditions: Scenedesmus fuscus
Human gammaherpesvirus 4 = assay: Antiviral activity against Epstein-Barr virus at 100 ug/ml; assay type: functional, organism-based
Influenza B virus = assay: Antiviral activity against influenza B at 100 ug/ml; assay type: functional, organism-based
[3] = biological target: Dual specificity tyrosine-phosphorylation-regulated kinase 1A (Homo sapiens) (UniProt Q13627); assay: Inhibition of DYRK1A at […]
[4] = tested on: Human immunodeficiency virus 2; assay: Antiviral activity against HIV2 infected in human MT4 cells assessed as inhibition of virus-induced cytopathogenic effect at 50 ug/ml after 5 days by MTT assay; assay type: functional, organism-based
Escherichia coli = assay: Antibacterial activity against Escherichia coli at 50 ug/disk; assay type: functional, organism-based
MCF7 = assay: Cytotoxicity against human MCF7 cells at 100 uM after 48 hrs by sulforhodamine B assay; assay type: functional, cell-based
[5] = biological target: Neutrophil elastase (Homo sapiens) (UniProt P08246); assay: Inhibition of human neutrophil elastase at 100 uM
Microbotryum violaceum = assay: Antifungal activity against Microbotryum violaceum at 50 ug/disk; assay type: functional, organism-based
NCI-H460 = assay: Cytotoxicity against human NCI-H460 cells at 100 uM after 48 hrs by sulforhodamine B assay; assay type: functional, cell-based
3T3-L1 [6] = assay: Inhibition of adipogenesis in mouse 3T3L1 cells assessed as triglyceride accumulation at 100 ug/ml after 7 days relative to control; assay type: functional; design: scale not given: the % may be the effect or the level left
3T3-L1 [7] = assay: Inhibition of adipogenesis in mouse 3T3L1 cells assessed as triglyceride accumulation after 7 days; assay type: functional, cell-based; conditions: 3T3-L1, 168 h
3T3-L1 [8] = assay: Cytotoxicity against mouse 3T3L1 cells assessed as cell viability after 7 days; assay type: cell-based; conditions: 3T3-L1, 168 h
3T3-L1 [9] = assay: Inhibition of adipogenesis in mouse 3T3L1 cells assessed as triglyceride accumulation at 20 ug/ml after 7 days relative to control; assay type: functional; design: scale not given: the % may be the effect or the level left
[10] = Cytotoxicity against mouse 3T3L1 cells assessed as cell viability at 4 ug/ml after 7 days relative to control; assay type: cell-based; conditions: 3T3-L1 cells, read-out: Activity
[11] = Cytotoxicity against mouse 3T3L1 cells assessed as cell viability at 100 ug/ml after 7 days relative to control; assay type: cell-based; conditions: 3T3-L1 cells, read-out: Activity
3T3-L1 [12] = assay: Inhibition of adipogenesis in mouse 3T3L1 cells assessed as triglyceride accumulation at 4 ug/ml after 7 days relative to control; assay type: functional; design: scale not given: the % may be the effect or the level left
[13] = Cytotoxicity against mouse 3T3L1 cells assessed as cell viability at 20 ug/ml after 7 days relative to control; assay type: cell-based; conditions: 3T3-L1 cells, read-out: Activity
3T3-L1 [14] = assay: Inhibition of adipogenesis in mouse 3T3L1 cells assessed as triglyceride accumulation at 50 ug/ml after 7 days relative to control; assay type: functional; design: scale not given: the % may be the effect or the level left
3T3-L1 [15] = assay: Inhibition of adipogenesis in mouse 3T3L1 cells assessed as triglyceride accumulation at 25 ug/ml after 7 days relative to control; assay type: functional; design: scale not given: the % may be the effect or the level left
[16] = Cytotoxicity against mouse 3T3L1 cells assessed as cell viability at 25 ug/ml after 7 days relative to control; assay type: cell-based; conditions: 3T3-L1 cells, read-out: Activity
[17] = Cytotoxicity against mouse 3T3L1 cells assessed as cell viability at 50 ug/ml after 7 days relative to control; assay type: cell-based; conditions: 3T3-L1 cells, read-out: Activity

Sequence of Neutrophil elastase (Homo sapiens) (P08246 whole entry): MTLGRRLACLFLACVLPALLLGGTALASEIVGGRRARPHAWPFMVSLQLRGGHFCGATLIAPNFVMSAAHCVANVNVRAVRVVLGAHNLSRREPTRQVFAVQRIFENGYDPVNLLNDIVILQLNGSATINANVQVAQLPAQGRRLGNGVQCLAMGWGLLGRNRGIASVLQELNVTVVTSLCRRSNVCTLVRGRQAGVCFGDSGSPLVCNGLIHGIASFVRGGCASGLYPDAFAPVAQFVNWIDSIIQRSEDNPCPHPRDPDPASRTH
Sequence of Cyclin-dependent kinase 5 (Homo sapiens) (Q00535 whole entry, looked up): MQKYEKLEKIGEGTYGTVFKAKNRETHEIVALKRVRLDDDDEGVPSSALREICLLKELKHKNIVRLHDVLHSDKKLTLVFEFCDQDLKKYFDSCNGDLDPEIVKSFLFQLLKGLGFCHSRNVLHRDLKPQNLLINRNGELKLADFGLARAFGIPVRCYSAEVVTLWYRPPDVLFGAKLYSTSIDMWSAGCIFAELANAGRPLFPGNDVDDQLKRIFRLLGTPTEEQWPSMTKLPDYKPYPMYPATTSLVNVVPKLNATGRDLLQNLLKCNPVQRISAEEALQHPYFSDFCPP

| Compound | Activity (Priestia megaterium) | Activity (Mycotypha microspora) | Activity (Aspergillus ruber) | Activity ([Chlorella] fusca) | Activity (Escherichia coli) | Activity (Microbotryum violaceum) | Activity (3T3-L1 [6]) [%] | IC50 (3T3-L1 [7]) [µg/mL] | IC50 (3T3-L1 [8]) [µg/mL] | viability at 168 h, 100 ug/ml [11] [%] | further results |
| --- | --- | --- | --- | --- | --- | --- | --- | --- | --- | --- | --- |
| CC(C)[C@H]1CC=C(C(=O)O)[C@@H]2CCC(CO)=C[C@H]12 | inactive | inactive | inactive | inactive | inactive | inactive |  |  |  |  | Activity (SARS-CoV): inactive; inhibition (SF-268): inactive; inhibition (Plasmodium berghei): inactive; Activity (Influenza A virus): inactive; inhibition [1]: inactive; inhibition [2]: inactive; inhibition (Human gammaherpesvirus 4): inactive; Activity (Influenza B virus): inactive; inhibition [3]: inactive; inhibition [4]: inactive; inhibition (MCF7): inactive; inhibition [5]: inactive; inhibition (NCI-H460): inactive |
| CC1=C[C@H]2[C@@H](CC1)C(C(=O)O)=CC[C@@H]2C(C)(C)O | inactive | inactive | inactive | inactive | inactive | inactive |  |  |  |  |  |
| CC1=C[C@@H]2[C@@H](C(C)C)[C@H](O)C=C(C(=O)O)[C@@H]2CC1 | inactive | inactive | inactive | inactive | inactive | inactive | 26 | 53 (≈ 212 µM) | 76 (≈ 304 µM) | 46 | Activity (3T3-L1 [9]): 133%; viability at 168 h, 4 ug/ml [10]: 82%; Activity (3T3-L1 [12]): 117%; viability at 168 h, 20 ug/ml [13]: 79% |
| CC1=C[C@@H]2[C@@H](C(C)C)CC=C(C(=O)O)[C@@H]2CC1 | inactive | inactive | inactive | inactive | inactive | inactive |  |  |  |  |  |
| CC1=C[C@@H]2[C@@H](C(C)CO)CC=C(C(=O)O)[C@@H]2CC1 (some centres undefined) | inactive | inactive | inactive | inactive | inactive | inactive |  |  |  |  |  |
| NC[C@H](O)c1ccc(O)c(O)c1 [NOREPINEPHRINE] |  |  |  |  |  |  | 33 | 69 (≈ 408 µM) | > 100 | 69 | Activity (3T3-L1 [14]): 64%; Activity (3T3-L1 [15]): 71%; viability at 168 h, 25 ug/ml [16]: 123%; viability at 168 h, 50 ug/ml [17]: 102% |
